One assay deals with T1, mGluR1 α (Rattus norvegicus, UniProt P23385).
T1 construct: expressed in transfected cells
Briefly: phosphatidylinositol (PI) hydrolysis system using mGluR1 α expression cells. The following applies: read-out: IC50, inhibition of the reaction of glutamic acid in PI hydrolysis system. In kind it is cell-based.

The target in a further assay is T2, mGluR1 (Rattus norvegicus, UniProt P23385).
T2 construct: from tissue; host or cells: rat (Wistar) cerebellum P2 membrane fraction
T2 sequence (P23385 19-1199): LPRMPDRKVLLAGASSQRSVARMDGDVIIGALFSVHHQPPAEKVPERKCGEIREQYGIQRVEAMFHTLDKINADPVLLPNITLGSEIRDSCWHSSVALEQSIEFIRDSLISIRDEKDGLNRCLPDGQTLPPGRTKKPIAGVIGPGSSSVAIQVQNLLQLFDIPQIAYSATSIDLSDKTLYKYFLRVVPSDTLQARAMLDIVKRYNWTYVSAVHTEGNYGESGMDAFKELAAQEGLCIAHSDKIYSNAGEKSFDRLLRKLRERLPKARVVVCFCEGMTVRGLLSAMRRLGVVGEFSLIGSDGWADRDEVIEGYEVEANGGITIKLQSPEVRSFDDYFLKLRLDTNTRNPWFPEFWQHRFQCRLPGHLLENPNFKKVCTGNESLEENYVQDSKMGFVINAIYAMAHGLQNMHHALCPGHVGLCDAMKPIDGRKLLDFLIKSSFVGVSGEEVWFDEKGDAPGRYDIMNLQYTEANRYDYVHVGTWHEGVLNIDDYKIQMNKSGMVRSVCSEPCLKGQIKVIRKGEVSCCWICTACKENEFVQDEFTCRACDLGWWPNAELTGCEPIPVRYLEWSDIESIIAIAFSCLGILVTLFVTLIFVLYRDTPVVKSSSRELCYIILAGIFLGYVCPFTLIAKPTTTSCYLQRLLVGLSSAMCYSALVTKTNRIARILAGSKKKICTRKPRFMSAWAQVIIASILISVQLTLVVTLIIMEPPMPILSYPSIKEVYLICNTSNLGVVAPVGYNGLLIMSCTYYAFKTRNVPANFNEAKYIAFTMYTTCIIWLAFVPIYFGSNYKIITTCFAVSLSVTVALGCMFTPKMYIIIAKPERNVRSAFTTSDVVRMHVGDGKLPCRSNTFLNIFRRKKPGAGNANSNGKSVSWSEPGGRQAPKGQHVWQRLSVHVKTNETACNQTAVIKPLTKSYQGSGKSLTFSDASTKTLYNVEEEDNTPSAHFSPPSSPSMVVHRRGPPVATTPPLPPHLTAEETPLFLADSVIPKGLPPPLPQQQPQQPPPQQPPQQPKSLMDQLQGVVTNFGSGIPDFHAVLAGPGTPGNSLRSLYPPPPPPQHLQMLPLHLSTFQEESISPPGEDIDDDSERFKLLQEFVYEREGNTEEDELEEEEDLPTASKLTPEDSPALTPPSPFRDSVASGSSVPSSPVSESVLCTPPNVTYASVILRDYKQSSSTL
Briefly: mGluR1 binding test with tritium-labeled ligand on rat cerebellum P2 membrane fraction. On the procedure: Rats (Wistar, males, 9 to 12 weeks of age) were decapitated to excise cerebella. After weight measurement, they were homogenized in 7 to 10 volumes of 0.32 M sucrose solution. After 15 minutes of centrifugation at 900×g, the supernatant was preserved in a container (in ice). The precipitate was again homogenized in 0.32 M sucrose solution of the same volume of the first time and centrifuged at 900×g for 15 minutes. The supernatant obtained this time was combined with the previously obtained supernatant and centrifuged at 15,000×g for 20 minutes. The precipitate was homogenized in 5 mM Tris-HCl, pH 7.4, and centrifuged at 15,000×g for 15 minutes. This step was repeated again. The precipitate was homogenized in 50 mM Tris-HCl, pH 7.4, and centrifuged at 15,000×g for 15 minutes. The precipitate was homogenized in an appropriate amount of 50 mM Tris-HCl, pH 7.4, subdivided into small portions and then preserved at −80° C.
The binding test was carried out by the following modified method of Thomsen et al.
As the assay buffer, 50 mM Tris-HCl, 2.5 mM CaCl2, pH 7.4, was used. […] Quantity of the radioactivity was measured using a liquid scintillation counter. […]

Structures can show the parent of a compound that is named as a salt.

In general, IC50 refers to the midpoint of a concentration-inhibition curve.

T1 sequence (P23385 19-1199): as above

Take `CN(C(=O)c1cn2c(nc3ccc(NC(=O)CN)cc32)s1)C1CCCCC1` [Example 41, N-Cyclohexyl-6-glycylamino-N-methylthiazolo[3,2-a]benzoimidazole-2-carboxamide dihydrochloride]: the IC50 on mGluR1 α amounted to 20 nM.

With `[3H]C([3H])([3H])N(C(=O)c1sc2nc3ccc(N)cc3n2c1C)C1CCCCC1` [[^3H]-6-Amino-N-cyclohexyl-N,3-dimethylthiazolo[3,2-a]benzoimidazole-2-carboxamide], the “Bmax in the saturation test” value on mGluR1 is 3.9 pmol/mg protein. The Kd on mGluR1 (room temperature, 45 minutes, read-out: KD value in the saturation test) came out at 47 nM.

Values taken from US6642264B1, “Thiazolobenzoimidazole derivatives” (Yamanouchi Pharmaceutical Co., Ltd., priority 1999, dated 2003).
